Experimental data from publication PMC8238920, “Functional inhibition of lactate dehydrogenase suppresses pancreatic adenocarcinoma progression” (Clinical and Translational Medicine, 2021).

Target: T1, lactate dehydrogenase A (LDHA) (Homo sapiens, UniProt P00338)
T1 construct: his-tag LDHA human recombinant protein (Cat. No. 71081, BPS Bioscience)
Experiment: SPR (Biacore T200, LDHA immobilized on CM5 chip, berberine […])
Type: binding

`COc1ccc2cc3[n+](cc2c1OC)CCc1cc2c(cc1-3)OCO2` [BBR, berberine] showed a Kd of 4.59 µM.
